# Data taken from PMC6130205 (Journal of medicinal chemistry, 2018).
# Tests used:
# Assay type in all cases: biochemical
# [1] = target: T1, SIRT1 (Homo sapiens, UniProt Q96EB6); assay: fluorometric substrate cleavage
# T1 sequence (Q96EB6 2-747): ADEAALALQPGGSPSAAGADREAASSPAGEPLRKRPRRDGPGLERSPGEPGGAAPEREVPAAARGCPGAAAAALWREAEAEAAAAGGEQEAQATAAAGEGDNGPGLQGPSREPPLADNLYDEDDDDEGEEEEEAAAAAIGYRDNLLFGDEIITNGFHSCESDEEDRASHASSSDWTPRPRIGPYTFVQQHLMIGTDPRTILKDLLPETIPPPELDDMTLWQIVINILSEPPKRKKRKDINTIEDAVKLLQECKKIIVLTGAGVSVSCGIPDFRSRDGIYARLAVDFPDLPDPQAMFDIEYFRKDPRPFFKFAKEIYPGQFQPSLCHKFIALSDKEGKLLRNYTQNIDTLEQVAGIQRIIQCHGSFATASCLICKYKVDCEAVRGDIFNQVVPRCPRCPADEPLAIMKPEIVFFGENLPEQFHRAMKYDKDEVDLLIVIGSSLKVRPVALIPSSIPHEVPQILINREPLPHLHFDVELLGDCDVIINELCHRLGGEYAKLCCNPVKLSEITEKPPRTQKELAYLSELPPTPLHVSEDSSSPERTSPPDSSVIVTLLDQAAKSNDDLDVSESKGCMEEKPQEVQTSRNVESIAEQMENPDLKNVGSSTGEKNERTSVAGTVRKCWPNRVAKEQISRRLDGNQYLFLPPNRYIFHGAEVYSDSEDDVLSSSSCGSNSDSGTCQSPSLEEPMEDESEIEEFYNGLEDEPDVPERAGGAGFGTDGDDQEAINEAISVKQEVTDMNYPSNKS
# [2] = target: T1, SIRT1; assay: fluorometric substrate cleavage kinetics
# [3] = target: T1, SIRT1; assay: in vitro SIRT1 reaction monitored by […] NMR
SMILES,fluorometric substrate cleavage (Kcat) [1],fluorometric substrate cleavage kinetics (Kcat/Km) [2],also measured
"Cc1cc(=O)oc2cc(NC(=O)[C@H](CCCCNC(=O)c3ccccc3F)NC(=O)OCc3ccccc3)ccc12 [compound 2, Benzyl (6-(2-Fluorobenzamido)-1-((4-methyl-2-oxo-2H-chromen-7-yl)amino)-1-oxohexan-2-yl)carbamate]",,26.02 ± 7.07 M⁻¹ s⁻¹,
"CCc1ccc(C(=O)NCCCC[C@H](NC(=O)OCc2ccccc2)C(=O)Nc2ccc3c(C)cc(=O)oc3c2)cc1 [compound 5, Benzyl (6-(4-Ethylbenzamido)-1-((4-methyl-2-oxo-2H-chromen-7-yl)amino)-1-oxohexan-2-yl)carbamate]",the 4-ethyl substitution increased the Kcat for SIRT1 but only minimally,,
Cc1cc(=O)oc2cc(NC(=O)[C@H](CCCCNC(=O)Cc3ccccc3)NC(=O)OCc3ccccc3)ccc12 [compound 7],(0.37 ± 0.02) × 10^−3 s^−1,,
"O=C(CCCCCNC(=O)c1ccccc1F)Nc1ccccc1 [compound 12, 2-FBzAHA]",,,in vitro SIRT1 reaction monitored by 19F NMR [3]: The enzymatic cleavage of 2F-BzAHA by SIRT1 was validated using an in vitro SIRT1 enzyme assay

# More lines, main results first:
fluorometric substrate cleavage (Kcat) [1],fluorometric substrate cleavage kinetics (Kcat/Km) [2],SMILES,also measured
(0.41 ± 0.014) × 10^−3 s^−1,,"Cc1cc(=O)oc2cc(NC(=O)[C@H](CCCCNC(=O)c3ccccc3)NC(=O)OCc3ccccc3)ccc12 [compound 1, Benzyl (6-Benzamido-1-((4-methyl-2-oxo-2H-chromen-7-yl)-amino)-1-oxohexan-2-yl)carbamate]",
,63.39 ± 4.32 M⁻¹ s⁻¹,"Cc1cc(=O)oc2cc(NC(=O)[C@H](CCCCNC(=O)c3cccc(F)c3)NC(=O)OCc3ccccc3)ccc12 [compound 3, Benzyl (6-(3-Fluorobenzamido)-1-((4-methyl-2-oxo-2H-chromen-7-yl)amino)-1-oxohexan-2-yl)carbamate]",
,16.08 ± 1.32 M⁻¹ s⁻¹,"Cc1cc(=O)oc2cc(NC(=O)[C@H](CCCCNC(=O)c3ccc(F)cc3)NC(=O)OCc3ccccc3)ccc12 [compound 4, Benzyl (6-(4-Fluorobenzamido)-1-((4-methyl-2-oxo-2H-chromen-7-yl)amino)-1-oxohexan-2-yl)carbamate]",
